Data reported in ChEMBL document CHEMBL1156812, “Novel synthesis of the hexahydroimidazo[1,5b]isoquinoline scaffold: application to the synthesis of glucocorticoid receptor modulators” (J Med Chem, 2010).

Experiments:
[1] = Metabolic stability in human liver microsomes assessed as compound remaining at 3 uM after 10 mins; type: ADME, Microsome; settings: read-out: Stability
[2] = molecular target: T1, Glucocorticoid receptor (Homo sapiens, UniProt P04150); assay: Displacement of GS-red from human glucocorticoid receptor by fluorescent polarization assay
T1 sequence (P04150 whole entry): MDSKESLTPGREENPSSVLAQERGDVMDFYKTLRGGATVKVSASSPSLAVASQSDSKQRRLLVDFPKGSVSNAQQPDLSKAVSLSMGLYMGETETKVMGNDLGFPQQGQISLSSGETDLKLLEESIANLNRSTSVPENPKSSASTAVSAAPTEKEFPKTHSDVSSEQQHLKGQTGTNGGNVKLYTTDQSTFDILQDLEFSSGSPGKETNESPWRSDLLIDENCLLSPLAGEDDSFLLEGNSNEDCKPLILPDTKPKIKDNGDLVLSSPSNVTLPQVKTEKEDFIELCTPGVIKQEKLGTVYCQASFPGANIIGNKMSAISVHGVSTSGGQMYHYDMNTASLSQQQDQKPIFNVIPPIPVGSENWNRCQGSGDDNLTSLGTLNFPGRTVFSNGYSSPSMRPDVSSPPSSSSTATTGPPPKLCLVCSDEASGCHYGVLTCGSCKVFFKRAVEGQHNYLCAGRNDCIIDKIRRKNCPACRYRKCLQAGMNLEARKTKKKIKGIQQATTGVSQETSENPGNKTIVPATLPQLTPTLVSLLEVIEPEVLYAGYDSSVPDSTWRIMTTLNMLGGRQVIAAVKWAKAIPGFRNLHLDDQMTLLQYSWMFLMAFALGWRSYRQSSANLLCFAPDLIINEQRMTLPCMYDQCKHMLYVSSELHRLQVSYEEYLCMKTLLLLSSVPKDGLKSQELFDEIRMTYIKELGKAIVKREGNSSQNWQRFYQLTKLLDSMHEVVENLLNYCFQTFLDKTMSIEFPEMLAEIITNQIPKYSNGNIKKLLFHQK

[3] = molecular target: T1, Glucocorticoid receptor; assay: Transactivation of GAL-4 tagged glucocorticoid receptor ligand binding domain expressed in human HeLa cells assessed as NP1 activation by luciferase reporter gene assay; type: cell-based
[4] = molecular target: T1, Glucocorticoid receptor; assay: Transrepression activity at glucocorticoid receptor expressed in human A549 cells assessed as inhibition of PMA-induced AP1 activity after 6 hrs by luciferase reporter gene assay; type: cell-based
[5] = molecular target: T2, Androgen receptor (Homo sapiens, UniProt P10275); assay: Binding affinity to androgen receptor
T2 sequence (P10275 whole entry): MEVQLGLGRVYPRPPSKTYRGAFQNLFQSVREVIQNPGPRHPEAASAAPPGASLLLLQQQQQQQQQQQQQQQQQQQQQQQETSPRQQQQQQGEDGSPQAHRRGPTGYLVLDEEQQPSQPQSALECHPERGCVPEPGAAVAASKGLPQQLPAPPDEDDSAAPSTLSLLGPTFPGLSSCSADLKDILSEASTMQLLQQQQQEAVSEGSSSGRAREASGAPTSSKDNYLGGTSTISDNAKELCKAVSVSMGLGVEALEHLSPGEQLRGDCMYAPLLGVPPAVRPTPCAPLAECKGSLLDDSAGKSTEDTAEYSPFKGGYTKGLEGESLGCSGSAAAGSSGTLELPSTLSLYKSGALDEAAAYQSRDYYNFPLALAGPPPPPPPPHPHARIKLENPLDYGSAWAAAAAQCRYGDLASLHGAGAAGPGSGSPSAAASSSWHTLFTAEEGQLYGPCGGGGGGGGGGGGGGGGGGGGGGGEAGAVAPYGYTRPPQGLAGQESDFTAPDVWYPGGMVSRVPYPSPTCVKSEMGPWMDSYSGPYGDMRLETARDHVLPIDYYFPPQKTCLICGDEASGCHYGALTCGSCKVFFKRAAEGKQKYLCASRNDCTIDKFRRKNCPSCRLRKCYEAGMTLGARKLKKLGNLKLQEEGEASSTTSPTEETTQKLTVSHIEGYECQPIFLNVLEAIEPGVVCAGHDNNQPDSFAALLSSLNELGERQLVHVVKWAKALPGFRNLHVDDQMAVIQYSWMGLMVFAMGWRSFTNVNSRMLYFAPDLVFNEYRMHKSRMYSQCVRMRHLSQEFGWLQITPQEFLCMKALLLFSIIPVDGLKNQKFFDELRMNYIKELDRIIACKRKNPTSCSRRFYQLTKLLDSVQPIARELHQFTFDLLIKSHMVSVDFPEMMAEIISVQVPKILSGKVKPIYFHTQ

[6] = molecular target: T3, Progesterone receptor (Homo sapiens, UniProt P06401); assay: Binding affinity to progesterone receptor
T3 sequence (P06401 whole entry): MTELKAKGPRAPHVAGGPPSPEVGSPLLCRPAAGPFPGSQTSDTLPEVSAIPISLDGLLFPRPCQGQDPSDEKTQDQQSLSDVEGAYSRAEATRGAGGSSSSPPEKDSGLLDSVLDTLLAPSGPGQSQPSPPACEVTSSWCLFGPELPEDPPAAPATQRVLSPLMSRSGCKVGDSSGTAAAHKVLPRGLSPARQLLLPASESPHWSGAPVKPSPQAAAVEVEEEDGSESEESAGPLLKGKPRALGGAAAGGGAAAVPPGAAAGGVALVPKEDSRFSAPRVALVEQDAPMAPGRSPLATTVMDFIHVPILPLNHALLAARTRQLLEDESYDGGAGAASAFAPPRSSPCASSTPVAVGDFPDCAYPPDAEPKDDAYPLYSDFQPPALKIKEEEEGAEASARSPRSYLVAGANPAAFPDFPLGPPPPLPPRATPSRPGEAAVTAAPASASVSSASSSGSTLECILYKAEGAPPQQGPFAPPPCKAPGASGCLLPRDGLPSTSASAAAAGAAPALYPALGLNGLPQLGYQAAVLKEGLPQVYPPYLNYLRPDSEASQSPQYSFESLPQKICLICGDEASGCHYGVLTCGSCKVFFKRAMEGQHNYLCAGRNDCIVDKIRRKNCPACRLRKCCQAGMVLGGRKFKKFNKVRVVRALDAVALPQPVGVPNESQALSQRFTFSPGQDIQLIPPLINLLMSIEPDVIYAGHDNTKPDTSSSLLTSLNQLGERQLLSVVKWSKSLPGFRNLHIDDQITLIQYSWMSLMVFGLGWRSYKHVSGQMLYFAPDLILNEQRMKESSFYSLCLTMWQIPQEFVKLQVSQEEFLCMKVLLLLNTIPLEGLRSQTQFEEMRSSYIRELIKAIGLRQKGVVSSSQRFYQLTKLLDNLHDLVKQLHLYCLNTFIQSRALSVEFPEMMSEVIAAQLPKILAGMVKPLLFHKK

[7] = Metabolic stability in rat liver microsomes assessed as compound remaining at 3 uM after 10 mins; type: ADME, Microsome; settings: read-out: Stability
[8] = molecular target: T1, Glucocorticoid receptor; assay: Transrepression activity at glucocorticoid receptor expressed in human A549 cells assessed as inhibition of IL-1-beta-induced NF-kappaB dependent E-selection promoter activation after 6 hrs by luciferase reporter gene based ELAM assay; type: cell-based
[9] = Metabolic stability in mouse liver microsomes assessed as compound remaining at 3 uM after 10 mins; type: ADME, Microsome; settings: read-out: Stability

Q: What does the source list for `C[C@]12Cn3cnc(-c4ccc(F)cc4)c3C=C1CCC[C@@H]2[C@](C)(O)c1ccc(Cl)cc1`?
A: remaining at 10 min, 3 µM [1]: 56%; Ki [2]: 2 nM; EC50 [3]: 697 nM; EC50 [4]: 7.5 nM; IC50 [5]: > 4000 nM; Ki [6]: 238 nM; remaining at 10 min, 3 µM [7]: 51%; EC50 [8]: 19 nM; remaining at 10 min, 3 µM [9]: 73%

Q: Which remaining at 10 min, 3 µM [1] does the source give for `Cc1ccsc1[C@@](C)(O)[C@H]1CCCC2=Cc3c(-c4ccc(F)cc4)ncn3C[C@@]21C` here?
A: 3%

Q: What about the Ki [2] of the same molecule?
A: 2 nM

Q: What about the EC50 [3] of the same molecule?
A: 380 nM

Q: What about the EC50 [4] of the same molecule?
A: 29 nM

Q: And the IC50 [5]?
A: > 4000 nM

Q: What about the Ki [6] of the same molecule?
A: 132 nM

Q: What about the remaining at 10 min, 3 µM [7] of the same molecule?
A: 2%

Q: And the EC50 [8]?
A: 30 nM

Q: What about the remaining at 10 min, 3 µM [9] of the same molecule?
A: 21%

Q: For `C[C@]12Cn3cnc(-c4ccc(F)cc4)c3C=C1CCC[C@@H]2[C@](C)(O)c1ccc(Cl)s1`, which Ki [2] is on record?
A: 4 nM

Q: What about the EC50 [3] of the same molecule?
A: 253 nM

Q: What about the EC50 [4] of the same molecule?
A: 11 nM

Q: And the IC50 [5]?
A: > 4000 nM

Q: And the Ki [6]?
A: 409 nM

Q: What about the EC50 [8] of the same molecule?
A: 11 nM
